“And” between values parts separate entries of the source, which are not always exact repeats. Equal values may be shown once. Where a name gives a salt, the structure may show the parent alone. Read-outs that look alike come from different tables or passages of the source.
Test system: C. elegans
[1] = Table S2, C. elegans SS assay, 110 μM, 0 h, averages of 4 data points
[2] = Table S2, C. elegans SS assay, 110 μM, 24 h, averages of 4 data points

| Structure (SMILES) | Percentage of motility inhibition 0 h [1] | Percentage of motility inhibition 24 h [2] | Percentage of motility inhibition 0 h (110 µM) | Percentage of motility inhibition 24 h (110 µM) |
| --- | --- | --- | --- | --- |
| CC(C)(O)[C@@H]1CC[C@](C)([C@H]2[C@@H](O)C[C@@]3(C)[C@@H]4C[C@H](O)[C@H]5C(C)(C)[C@@H](O)CC[C@]5(C)C4=CC[C@]23C)O1 [Astragenol] | 50% | 50% | – | – |
| COC(=O)N[C@H](C(=O)N[C@@H](Cc1ccccc1)[C@@H](O)CN(Cc1ccc(-c2ccccn2)cc1)NC(=O)[C@@H](NC(=O)OC)C(C)(C)C)C(C)(C)C.O=S(=O)(O)O [Atazanavir (sulfate)] | 3% | 4% | – | – |
| C=C1[C@@H]2CCC3[C@@](CC[C@@H]4[C@H](C(=O)O)C[C@@H](O[C@@H]5O[C@H](CO)[C@@H](OS(=O)(=O)[O-])[C@H](OS(=O)(=O)[O-])[C@H]5OC(=O)CC(C)C)C[C@@]34C)(C2)[C@@H]1O.[K+].[K+] (some centres unmarked) [Atractyloside (potassium salt)] | 29% | 45% | – | – |
| CC(C)(O[C@@H]1O[C@H](CO)[C@@H](O)[C@H](O)[C@H]1O)[C@@H]1CC[C@](O)(CO)[C@H]2CC(=O)[C@@](C)(O)[C@@H]2C1 [Atractyloside A] | 13% | 28% | – | – |
| CN1[C@@H]2CC[C@H]1C[C@@H](OC(=O)C(CO)c1ccccc1)C2 (some centres unmarked) [Atropine] | – | – | 3% and 0% | 3% and 8% |
| O=C(N[C@@H](Cc1ccccc1)C(=O)N[C@H](CO)Cc1ccccc1)c1ccccc1 [Aurantiamide] | 0% | 15% | – | – |
| NC(=O)[C@@H]1CC[C@@H]2CN1C(=O)N2OS(=O)(=O)[O-].[Na+] [Avibactam (sodium hydrate)] | 37% | 3% | – | – |
| NC(=O)[C@@H]1CC[C@@H]2CN1C(=O)N2OS(=O)(=O)[O-].[Na+] [Avibactam (sodium)] | 0% | 8% | – | – |
| CC[C@H]1OC(=O)[C@H](C)[C@@H](O[C@H]2C[C@@](C)(OC)[C@@H](O)[C@H](C)O2)[C@H](C)[C@@H](O[C@@H]2O[C@H](C)C[C@H](N(C)C)[C@H]2O)[C@](C)(O)C[C@@H](C)CN[C@H](C)[C@@H](O)[C@]1(C)O [Azathramycin] | 11% | 10% | – | – |
| CC1(C)S[C@@H]2[C@H](NC(=O)[C@H](NC(=O)N3CCNC3=O)c3ccccc3)C(=O)N2[C@H]1C(=O)[O-].[Na+] [Azlocillin (sodium salt)] | 31% | 0% | – | – |
| Cc1nc(N(C)C(=O)Cc2ccc(-c3ccccn3)cc2)sc1S(N)(=O)=O [BAY 57‐1293] | 36% | 0% | – | – |
| COc1ccnc2[nH]cc(C(=O)C(=O)N3CCN(C(=O)c4ccccc4)C[C@H]3C)c12 [BMS‐378806] | 47% | 41% | – | – |
| CC(C)=C[C@@H]1CO[C@]23C[C@]4(CO2)[C@H](CC[C@@H]2[C@@]5(C)CC[C@H](O[C@@H]6OC[C@H](O)[C@H](O[C@@H]7O[C@H](CO)[C@@H](O)[C@H](O)[C@H]7O)[C@H]6O[C@@H]6O[C@@H](CO)[C@H](O)[C@H]6O)C(C)(C)[C@@H]5CC[C@]24C)[C@H]3[C@@]1(C)O [Bacopasaponin C] | 6% | 40% | – | – |
| CC(C)=C[C@@H]1CO[C@]23C[C@@]4(CO2)[C@@H](CC[C@@H]2[C@@]5(C)CC[C@H](O[C@H]6OC[C@H](O)[C@H](O[C@H]7O[C@H](COS(=O)(=O)O)[C@@H](O)[C@H](O)[C@H]7O)[C@H]6O[C@@H]6O[C@@H](CO)[C@H](O)[C@H]6O)C(C)(C)[C@@H]5CC[C@]24C)[C@H]3[C@@]1(C)O [Bacopaside I] | 19% | 0% | – | – |
| CC(C)=C[C@H]1C[C@](C)(O)[C@@H]2[C@H]3CC[C@@H]4[C@@]5(C)CC[C@H](O[C@@H]6OC[C@H](O)[C@H](O[C@@H]7O[C@H](CO)[C@@H](O)[C@H](O)[C@H]7O)[C@H]6O[C@@H]6O[C@@H](CO)[C@H](O)[C@H]6O)C(C)(C)[C@@H]5CC[C@@]4(C)[C@@]34CO[C@@]2(C4)O1 [Bacopaside X] | 9% | 35% | – | – |
| O=c1c(O[C@@H]2O[C@H](CO)[C@@H](O)[C@H](O)[C@H]2O[C@@H]2O[C@H](CO)[C@@H](O)[C@H](O)[C@H]2O)c(-c2ccc(O)c(O)c2)oc2cc(O)cc(O)c12 [Baimaside] | 13% | 0% | – | – |
| COc1ccc(-c2oc3c(CC=C(C)C)c(O)cc(O)c3c(=O)c2O[C@@H]2O[C@@H](C)[C@H](O)[C@@H](O)[C@H]2O)cc1 [Baohuoside I] | 0% | 0% | – | – |
| CC(C)=CCc1cc(C(=O)/C=C/c2ccc(O)cc2)c(O)cc1O [Bavachalcone] | 39% | 18% | – | – |
| CC1(C)CC[C@]2(C(=O)O)CC[C@]3(C)C(=CC[C@@H]4[C@@]5(C)C[C@H](O)[C@H](O)[C@@](C)(CO)[C@@H]5CC[C@]43C)[C@@H]2C1 [Bayogenin] | 2% | 5% | – | – |
| COC[C@]12CN(C)C3[C@@H]4[C@H](OC)[C@H]1[C@@]3([C@@H](OC)C[C@H]2O)[C@]1(O)C[C@@]2(O)[C@H](OC(=O)c3ccccc3)[C@@H]1[C@]4(OC(C)=O)[C@@H](O)[C@@H]2OC [Beiwutine] | – | 13% and 10% | – | – |
| CCN1C[C@]2(COC)[C@H](O)C[C@H](OC)[C@@]34[C@@H]5C[C@@]6(O)[C@H](OC(=O)c7ccccc7)[C@@H]5[C@@](O)([C@@H]([C@H](OC)[C@H]23)[C@@H]14)[C@@H](O)[C@@H]6OC [Benzoylaconine] | 2% | 0% | – | – |
| COC[C@@]12CC[C@H](OC)[C@]34C([C@H]([C@H](OC)[C@H]13)[C@]1(O)[C@H]3[C@@H](OC(=O)c5ccccc5)[C@](O)(C[C@H]34)[C@@H](OC)[C@@H]1O)N(C)C2 [Benzoylhypaconine] | 5% | 0% | – | – |
| COC[C@]12CN(C)C3[C@@H]4[C@H](OC)[C@H]1[C@@]3([C@@H](OC)C[C@H]2O)[C@@H]1C[C@@]2(O)[C@H](OC(=O)c3ccccc3)[C@@H]1[C@]4(O)[C@@H](O)[C@@H]2OC [Benzoylmesaconine] | 1% | 0% | – | – |
| C[N+](C)(CCOc1ccccc1)Cc1ccccc1.O=C([O-])c1cc2ccccc2cc1O [Bephenium (hydroxynaphthoate)] | 12% | 5% | – | – |
| COc1cc2c3cc1Oc1c(OC)c(OC)cc4c1[C@@H](Cc1ccc(O)c(c1)Oc1ccc(cc1)C[C@@H]3N(C)CC2)N(C)CC4 [Berbamine (dihydrochloride)] | 33% and 53% | 11% and 15% | – | – |
| COc1ccc2cc3[n+](cc2c1O)CCc1cc2c(cc1-3)OCO2.[Cl-] [Berberrubine (chloride)] | 0% | 0% | – | – |
| Cl.N[C@@H]1CCCCN(c2c(F)cc3c(=O)c(C(=O)O)cn(C4CC4)c3c2Cl)C1 [Besifloxacin (Hydrochloride)] | 6% | 32% | – | – |

Reference: paper PMC11855827, “High-Throughput Screening of Five Compound Libraries for Anthelmintic Activity and Toxicity Leads to the Discovery of Two Flavonoid Compounds” (International Journal of Molecular Sciences, 2025)
